Results: ChEMBL document CHEMBL4411296, “Design and development of Isatin-triazole hydrazones as potential inhibitors of microtubule affinity-regulating kinase 4 for the therapeutic management of cell proliferation and metastasis” (Eur J Med Chem, 2019)

Assays:
Assay type in all cases: functional
CCRF-CEM = test: Growth inhibition of human CCRF-CEM cells assessed as cell growth at 10 uM after 48 hrs by sulforhodamine B assay relative to control; conditions: read-out: Activity
K562 = test: Growth inhibition of human K562 cells assessed as cell growth at 10 uM after 48 hrs by sulforhodamine B assay relative to control; conditions: K562, 48 h, read-out: Activity
SR = test: Growth inhibition of human SR cells assessed as cell growth at 10 uM after 48 hrs by sulforhodamine B assay relative to control; conditions: read-out: Activity
HOP-92 = test: Growth inhibition of human HOP92 cells assessed as cell growth at 10 uM after 48 hrs by sulforhodamine B assay relative to control; conditions: HOP-92, 48 h, read-out: Activity
NCI-H226 = test: Growth inhibition of human NCI-H226 cells assessed as cell growth at 10 uM after 48 hrs by sulforhodamine B assay relative to control; conditions: NCI-H226, 48 h, read-out: Activity
NCI-H23 = test: Growth inhibition of human NCI-H23 cells assessed as cell growth at 10 uM after 48 hrs by sulforhodamine B assay relative to control; conditions: NCI-H23, 48 h, read-out: Activity
NCI-H322M = test: Growth inhibition of human NCI-H322M cells assessed as cell growth at 10 uM after 48 hrs by sulforhodamine B assay relative to control; conditions: read-out: Activity
NCI-H522 = test: Growth inhibition of human NCI-H522 cells assessed as cell growth at 10 uM after 48 hrs by sulforhodamine B assay relative to control; conditions: NCI-H522, 48 h, read-out: Activity
COLO 205 = test: Growth inhibition of human COLO205 cells assessed as cell growth at 10 uM after 48 hrs by sulforhodamine B assay relative to control; conditions: COLO 205, 48 h, read-out: Activity
SW-620 = test: Growth inhibition of human SW620 cells assessed as cell growth at 10 uM after 48 hrs by sulforhodamine B assay relative to control; conditions: SW-620, 48 h, read-out: Activity
SNB-75 = test: Growth inhibition of human SNB75 cells assessed as cell growth at 10 uM after 48 hrs by sulforhodamine B assay relative to control; conditions: SNB-75, 48 h, read-out: Activity
U-251 = test: Growth inhibition of human U251 cells assessed as cell growth at 10 uM after 48 hrs by sulforhodamine B assay relative to control; conditions: U-251, 48 h, read-out: Activity
SK-MEL-28 = test: Growth inhibition of human SK-MEL-28 cells assessed as cell growth at 10 uM after 48 hrs by sulforhodamine B assay relative to control; conditions: SK-MEL-28, 48 h, read-out: Activity
UACC-257 = test: Growth inhibition of human UACC257 cells assessed as cell growth at 10 uM after 48 hrs by sulforhodamine B assay relative to control; conditions: UACC-257, 48 h, read-out: Activity
OVCAR-3 = test: Growth inhibition of human OVCAR3 cells assessed as cell growth at 10 uM after 48 hrs by sulforhodamine B assay relative to control; conditions: OVCAR-3, 48 h, read-out: Activity
OVCAR-4 = test: Growth inhibition of human OVCAR4 cells assessed as cell growth at 10 uM after 48 hrs by sulforhodamine B assay relative to control; conditions: OVCAR-4, 48 h, read-out: Activity
SK-OV-3 = test: Growth inhibition of human SKOV3 cells assessed as cell growth at 10 uM after 48 hrs by sulforhodamine B assay relative to control; conditions: SK-OV-3, 48 h, read-out: Activity
786-0 = test: Growth inhibition of human 786-0 cells assessed as cell growth at 10 uM after 48 hrs by sulforhodamine B assay relative to control; conditions: 786-0, 48 h, read-out: Activity
A498 = test: Growth inhibition of human A498 cells assessed as cell growth at 10 uM after 48 hrs by sulforhodamine B assay relative to control; conditions: A498, 48 h, read-out: Activity
UO-31 = test: Growth inhibition of human UO31 cells assessed as cell growth at 10 uM after 48 hrs by sulforhodamine B assay relative to control; conditions: UO-31, 48 h, read-out: Activity
DU-145 = test: Growth inhibition of human DU145 cells assessed as cell growth at 10 uM after 48 hrs by sulforhodamine B assay relative to control; conditions: DU-145, 48 h, read-out: Activity
MCF7 = test: Growth inhibition of human MCF7 cells assessed as cell growth at 10 uM after 48 hrs by sulforhodamine B assay relative to control; conditions: MCF7, 48 h, read-out: Activity
BT-549 = test: Growth inhibition of human BT549 cells assessed as cell growth at 10 uM after 48 hrs by sulforhodamine B assay relative to control; conditions: BT-549, 48 h, read-out: Activity
T47D = test: Growth inhibition of human T47D cells assessed as cell growth at 10 uM after 48 hrs by sulforhodamine B assay relative to control; conditions: read-out: Activity
MDA-MB-468 = test: Growth inhibition of human MDA-MB-468 cells assessed as cell growth at 10 uM after 48 hrs by sulforhodamine B assay relative to control; conditions: MDA-MB-468, 48 h, read-out: Activity
SF-295 = test: Growth inhibition of human SF295 cells assessed as cell growth at 10 uM after 48 hrs by sulforhodamine B assay relative to control; conditions: SF-295, 48 h, read-out: Activity

Compound | growth at 10 µM (CCRF-CEM) | growth at 10 µM (K562) | growth at 10 µM (SR) | growth at 10 µM (HOP-92) | growth at 10 µM (NCI-H226) | growth at 10 µM (NCI-H23) | growth at 10 µM (NCI-H322M) | growth at 10 µM (NCI-H522) | growth at 10 µM (COLO 205) | growth at 10 µM (SW-620) | growth at 10 µM (SNB-75) | growth at 10 µM (U-251) | growth at 10 µM (SK-MEL-28) | growth at 10 µM (UACC-257) | growth at 10 µM (OVCAR-3) | growth at 10 µM (OVCAR-4) | growth at 10 µM (SK-OV-3) | growth at 10 µM (786-0) | growth at 10 µM (A498) | growth at 10 µM (UO-31) | also measured
COc1ccc(Cn2cc(C(=O)N/N=C3/C(=O)Nc4ccc(F)c(Cl)c43)nn2)cc1 | 109% | 90.8% | 99.5% | 129% | 93.2% | 98% | 105% | 84% | 115% | 106% | 103% | 103% | 115% | 100% | 105% | 104% | 116% | 103% | 91.3% | 92.4% | growth at 10 µM (DU-145): 96.6%; growth at 10 µM (MCF7): 91.8%; growth at 10 µM (BT-549): 117%; growth at 10 µM (T47D): 110%; growth at 10 µM (MDA-MB-468): 108%
COc1ccc(Cn2cc(C(=O)N/N=C3/C(=O)Nc4c(F)cccc43)nn2)cc1 | 90.2% | 88% | 90.3% | 83.8% | 91.9% | 90.1% | 97.5% | 88.6% | 95% | 92.7% | 90.1% | 94.6% | 104% | 88.7% | 111% | 61.5% | 102% | 101% | 113% | 77% | growth at 10 µM (SF-295): 98%; growth at 10 µM (DU-145): 102%; growth at 10 µM (MCF7): 94.1%; growth at 10 µM (BT-549): 105%; growth at 10 µM (T47D): 66.8%; growth at 10 µM (MDA-MB-468): 89.6%
COc1ccc(Cn2cc(C(=O)N/N=C3/C(=O)Nc4ccccc43)nn2)cc1 | 104% | 90.5% | 94.8% | 112% | 86.8% | 103% | 97.9% | 87.8% | 108% | 101% | 95.3% | 92.2% | 104% | 102% | 112% | 108% | 113% | 106% | 96% | 84.8% | growth at 10 µM (SF-295): 103%; growth at 10 µM (DU-145): 104%; growth at 10 µM (MCF7): 96.5%; growth at 10 µM (BT-549): 115%; growth at 10 µM (T47D): 113%; growth at 10 µM (MDA-MB-468): 99%
COc1ccc(Cn2cc(C(=O)N/N=C3/C(=O)Nc4ccc(F)cc43)nn2)cc1 | 95% | 97.2% | 102% | 98.8% | 98.5% | 99.5% | 102% | 86.1% | 111% | 103% | 104% | 99.9% | 116% | 91% | 112% | 101% | 98.9% | 97.6% | 83.4% | 93.2% | growth at 10 µM (SF-295): 95.4%; growth at 10 µM (DU-145): 103%; growth at 10 µM (MCF7): 89.5%; growth at 10 µM (BT-549): 116%; growth at 10 µM (T47D): 85.9%; growth at 10 µM (MDA-MB-468): 87.8%
